In patent US20150266878A1, “NOVEL BI-RING PHENYL-PYRIDINES/PYRAZINES FOR THE TREATMENT OF CANCER” (HOFFMANN-LA ROCHE INC., priority 2012, published 2015):

Tests used:
AGS (gastric cancer) = assay: In vitro cell proliferation assay (CCK-8), AGS; assay type: cell-based; settings: Homo sapiens, AGS cells, 72 hours
Experimental: (§1) In Vitro Cell Proliferation Assay:
(§2) Cells were seeded on 96-well plates at 5×10^3 cells per well and precultured for 24 hours. The cells were treated with serial diluted compounds and cultured for 72 hours. Then all media was discarded and after that, 100 μL 1:10 (v/v) Cell Counting Kit-8 (CCK-8)-culture media solution was added to the wells. Plate was developed for 2 hours in an incubator, and the absorbance was measured at 450 nm wavelengths with SpectraMAX190 (MDS, Sunnyvale, Calif.). The inhibition rate (IR) of the tested compounds was determined with following formula: IR (%)=(ODDMSO−ODcompound)/ODDMSO×100%. The concentration corresponding to 50% IR (IC50) was determined with plot curve of IR against tested compound concentrations with SoftMax Pro.

[1] = system: HCT116 (colorectal cancer); assay: In vitro cell proliferation assay (CCK-8), HCT116; assay type: cell-based; settings: Homo sapiens, HCT-116, HCT116 cells, 72 hours
Experimental: as §1, §2

CDK8/Cyclin C = target: T1, CDK8/Cyclin C (Homo sapiens, UniProt P49336); assay: CDK8/Cyclin C LANCE TR-FRET kinase assay; assay type: biochemical; settings: CDK8/Cyclin C 10 nM, ATP 24 μM, Ulight-GS peptide 80 nM, 37° C. 30 mins
T1 construct: purchased Invitrogen PV4402
From the text: CDK8/Cyclin C LANCE TR-FRET Kinase Assay:
The biological activity of the compounds of the invention can be determined using the assay described below.
CDK8/Cyclin C protein was obtained from Invitrogen, cat #PV4402. ULight-Glycogen Synthase (Ulight-GS) peptide with sequence PASVPPSPSLSRHSSPHQ(pS)ED, and Europium-anti-phospho Glycogen Synthase (Ser641) [Eu-anti-P-GS (Ser641)] were obtained from Perkin Elmer, cat #TRF0131-M and cat #TRF0220. Adenosine-5′-triphosphate (ATP) was obtained from Invitrogen, cat #PV3227.
A mixture of (1) a compound of formula I, (2) substrate [Ulight-GS peptide (80 nM) and ATP (24 μM)], and (3) CDK8/Cyclin C (10 nM) in reaction buffer (50 mM Hepes, pH7.0, 10 mM MgCl2, 1 mM EGTA, 0.2 mg/mL BSA, 0.8 mM DTT) were incubated at 37° C. for 30 mins. Then, [Eu-anti-P-GS (Ser641)] (1.5 nM) was added. Following incubation at room temperature for 30 mins, the TR-FRET signals were detected using Envision reader (Ex 340 nm, Em 615 nm and 665 nm) from Perkin Elmer. The reactivity in percentage of inhibition or dose response was analyzed with GraphPad Prism 5 (GraphPad Software).

[2] = system: SW-837 (colorectal cancer); assay: In vitro cell proliferation assay (CCK-8), SW-837; assay type: cell-based; settings: Homo sapiens, SW837, SW-837 cells, 72 hours
Experimental: as §1, §2

T1 sequence (P49336 whole entry): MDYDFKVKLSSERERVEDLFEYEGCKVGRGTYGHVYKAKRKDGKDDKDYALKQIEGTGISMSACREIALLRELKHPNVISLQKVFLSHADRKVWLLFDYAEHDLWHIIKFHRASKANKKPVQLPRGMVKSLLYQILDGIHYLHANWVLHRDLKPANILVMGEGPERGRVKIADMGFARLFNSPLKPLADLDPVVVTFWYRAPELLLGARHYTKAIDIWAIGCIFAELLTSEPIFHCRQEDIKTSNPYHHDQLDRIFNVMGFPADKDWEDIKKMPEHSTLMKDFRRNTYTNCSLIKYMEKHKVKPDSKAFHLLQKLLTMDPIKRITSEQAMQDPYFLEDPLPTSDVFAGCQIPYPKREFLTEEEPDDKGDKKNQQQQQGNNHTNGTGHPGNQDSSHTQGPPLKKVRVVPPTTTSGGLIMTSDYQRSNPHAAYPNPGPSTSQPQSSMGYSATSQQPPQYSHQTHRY
T1 sequence (P24863 whole entry partner): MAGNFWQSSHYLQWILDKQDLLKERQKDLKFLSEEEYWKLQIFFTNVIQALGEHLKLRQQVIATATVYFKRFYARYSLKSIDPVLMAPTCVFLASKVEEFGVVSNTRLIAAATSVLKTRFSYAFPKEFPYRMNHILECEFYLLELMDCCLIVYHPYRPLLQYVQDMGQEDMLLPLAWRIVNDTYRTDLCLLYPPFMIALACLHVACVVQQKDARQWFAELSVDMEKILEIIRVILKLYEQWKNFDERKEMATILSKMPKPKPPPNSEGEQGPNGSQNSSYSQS

Compound | IC50 (CDK8/Cyclin C) | also measured
OC[C@H](Nc1cncc(-c2ccc3[nH]ncc3c2)c1)c1ccccc1 [Example 16, (R)-2-[5-(1H-Indazol-5-yl)-pyridin-3-ylamino]-2-phenyl-ethanol] | 0.2 nM | IC50 (AGS (gastric cancer)): 0.033 µM; IC50 [1]: 0.037 µM; IC50 [2]: 0.091 µM
NC(=O)C(Nc1cncc(-c2ccc3[nH]nc(F)c3c2)c1)c1ccccc1 (stereo not drawn) [Example 42, 2-[5-(3-Fluoro-1H-indazol-5-yl)-pyridin-3-ylamino]-2-phenyl-acetamide] | 3.5 nM | –
COCCNC[C@H](Nc1cncc(-c2ccc3[nH]nc(F)c3c2)c1)c1ccccc1 [Example 45, (R)-N^1-[5-(3-Fluoro-1H-indazol-5-yl)-pyridin-3-yl]-N^2-(2-methoxy-ethyl)-1-phenyl-ethane-1,2-diamine] | 29.5 nM | –
OCCNC[C@H](Nc1cncc(-c2ccc3[nH]nc(F)c3c2)c1)c1ccccc1 [Example 47, 2-{(R)-2-[5-(3-Fluoro-1H-indazol-5-yl)-pyridin-3-ylamino]-2-phenyl-ethylamino}-ethanol] | 15 nM | –
Cc1n[nH]c2ccc(-c3cncc(N[C@@H](C(N)=O)c4ccccc4)c3)cc12 [Example 48, (R)-2-[5-(3-Methyl-1H-indazol-5-yl)-pyridin-3-ylamino]-2-phenyl-acetamide] | 1.6 nM | –
Cc1n[nH]c2ccc(-c3cncc(N[C@@H](CNS(=O)(=O)C4CC4)c4ccccc4)c3)cc12 [Example 51, Cyclopropanesulfonic acid {(R)-2-[5-(3-methyl-1H-indazol-5-yl)-pyridin-3-ylamino]-2-phenyl-ethyl}-amide] | 2.1 nM | –
Cc1n[nH]c2ccc(-c3cncc(N[C@@H](CNS(C)(=O)=O)c4ccccc4)c3)cc12 [Example 52, N-{(R)-2-[5-(3-Methyl-1H-indazol-5-yl)-pyridin-3-ylamino]-2-phenyl-ethyl}-methanesulfonamide] | 0.8 nM | –
Cc1n[nH]c2ccc(-c3cncc(N[C@@H](CNC(=O)CO)c4ccccc4)c3)cc12 [Example 54, 2-Hydroxy-N-{(R)-2-[5-(3-methyl-1H-indazol-5-yl)-pyridin-3-ylamino]-2-phenyl-ethyl}-acetamide] | 1.2 nM | –
COCCNC[C@H](Nc1cncc(-c2ccc3[nH]nc(C)c3c2)c1)c1ccccc1 [Example 55, (R)-N^2-(2-Methoxy-ethyl)-N^1-[5-(3-methyl-1H-indazol-5-yl)-pyridin-3-yl]-1-phenyl-ethane-1,2-diamine] | 9.5 nM | –
Cc1n[nH]c2ccc(-c3cncc(N[C@@H](CNC(=O)c4ccccc4)c4ccccc4)c3)cc12 [Example 58, N-{(R)-2-[5-(3-Methyl-1H-indazol-5-yl)-pyridin-3-ylamino]-2-phenyl-ethyl}-benzamide] | 6 nM | –
NC(=O)[C@H](Nc1cncc(-c2ccc3[nH]nc(Cl)c3c2)c1)c1ccccc1 [Example 59, (R)-2-[5-(3-Chloro-1H-indazol-5-yl)-pyridin-3-ylamino]-2-phenyl-acetamide] | 2.3 nM | –

Continued by falling IC50 (CDK8/Cyclin C), values first:

IC50 (CDK8/Cyclin C) | Compound | also measured
9.2 nM | NC(=O)[C@@H](Nc1cncc(-c2ccc3[nH]nc(Cl)c3c2)c1)c1ccccc1 [Example 60, (S)-2-[5-(3-Chloro-1H-indazol-5-yl)-pyridin-3-ylamino]-2-phenyl-acetamide] | –
5.3 nM | Cc1n[nH]c2ccc(-c3cncc(N[C@@H](CNC(=O)C4CCCCC4)c4ccccc4)c3)cc12 [Example 57, Cyclohexanecarboxylic acid {(R)-2-[5-(3-methyl-1H-indazol-5-yl)-pyridin-3-ylamino]-2-phenyl-ethyl}-amide] | –
5 nM | Cc1n[nH]c2ccc(-c3cncc(N[C@@H](CNCCO)c4ccccc4)c3)cc12 [Example 56, 2-{(R)-2-[5-(3-Methyl-1H-indazol-5-yl)-pyridin-3-ylamino]-2-phenyl-ethylamino}-ethanol] | –
4.2 nM | Cc1n[nH]c2ccc(-c3cncc(N[C@H](C(N)=O)c4ccccc4)c3)cc12 [Example 49, (S)-2-[5-(3-Methyl-1H-indazol-5-yl)-pyridin-3-ylamino]-2-phenyl-acetamide] | –
3.5 nM | O=C1Cc2cc(-c3cncc(N[C@@H](CO)c4ccccc4)c3)ccc2N1 [Example 1, 5-[5-((R)-2-Hydroxy-1-phenyl-ethylamino)-pyridin-3-yl]-1,3-dihydro-indol-2-one] | IC50 (AGS (gastric cancer)): 0.65 µM; IC50 [1]: 0.66 µM; IC50 [2]: 2.3 µM
3.1 nM | CC(C)C(=O)NC[C@H](Nc1cncc(-c2ccc3[nH]nc(F)c3c2)c1)c1ccccc1 [Example 44, N-{(R)-2-[5-(3-Fluoro-1H-indazol-5-yl)-pyridin-3-ylamino]-2-phenyl-ethyl}-isobutyramide] | –
2.8 nM | Cc1n[nH]c2ccc(-c3cncc(NC(CNS(C)(=O)=O)c4ccccc4)c3)cc12 (stereo not drawn) [Example 50, N-{2-[5-(3-Methyl-1H-indazol-5-yl)-pyridin-3-ylamino]-2-phenyl-ethyl}-methanesulfonamide] | –
2.4 nM | O=C(CO)NC[C@H](Nc1cncc(-c2ccc3[nH]nc(F)c3c2)c1)c1ccccc1 [Example 46, N-{(R)-2-[5-(3-Fluoro-1H-indazol-5-yl)-pyridin-3-ylamino]-2-phenyl-ethyl}-2-hydroxy-acetamide] | –
2.3 nM | CCC(=O)NC[C@H](Nc1cncc(-c2ccc3[nH]nc(F)c3c2)c1)c1ccccc1 [Example 43, N-{(R)-2-[5-(3-Fluoro-1H-indazol-5-yl)-pyridin-3-ylamino]-2-phenyl-ethyl}-propionamide] | –
1.7 nM | COCCS(=O)(=O)NC[C@H](Nc1cncc(-c2ccc3[nH]nc(C)c3c2)c1)c1ccccc1 [Example 53, 2-Methoxy-ethanesulfonic acid {(R)-2-[5-(3-methyl-1H-indazol-5-yl)-pyridin-3-ylamino]-2-phenyl-ethyl}-amide] | –
